# Where “and” joins values, the source holds several entries; their conditions need not be identical. Identical values can stand only once. Like-named read-outs stand apart in the source and are kept apart here. Starred links: 1 amine or outer side, 2 acyl side, 3 side chain; linkers in the order of their positions; H or OH if unused. Positions of bridges follow the written chain, without caps; N, C: chain ends. Non-standard residues stand in square brackets, D forms with d. Residues, ends and D or L forms follow the SMILES beside them. *: point of attachment. pTerphenylCO(4''-OnC5H11) = CCCCCOc1ccc(-c2ccc(-c3ccc(C(=O)*)cc3)cc2)cc1; Orn(4R-OH,5R-OH) = O=C([C@H](C[C@@H](O)[C@@H](O)N[*:3])N[*:1])[*:2]; hTyr(3S-OH,4S-OH) = N[C@H](C(=O)O)[C@H](O)[C@@H](O)c1ccc(O)cc1; Pro(3S-OH,4S-Me) = C[C@H]1CN[C@H](C(=O)O)[C@H]1O; Hyp = O=C(O)[C@@H]1C[C@@H](O)CN1
# Experiments:
# C. albicans NRRL Y-477 = assay type: cell-based, Candida albicans
# Procedure: (§1) Spontaneous mutant selection. […] Three individual colonies from each strain were used to start cultures in RPMI. […] One milliliter aliquots were spread onto SDA plates containing drug with sterile glass beads. Starting viable count was enumerated by triplicate plating of serial dilutions of the starting inoculum. […] Glycerol stocks of putative mutant colonies were stored at −80° C. […] Spontaneous mutation frequencies were calculated by dividing the number of resistant colonies on a given plate by the starting inoculum plated. A subset of mutants (weighted heavily towards those selected with CMP1) were then evaluated by MIC and sequencing of FKS gene hot spot regions.
# [1] = test system: C. glabrata ATCC 90030, ATCC 2001; assay type: cell-based, Candida glabrata; details: for Freq. (replicate mutation frequency): replicate plates 1-3; for Plate concentration: SDA, minimum concentration to cleanly inhibit growth
# Procedure: as §1
# C. parapsilosis CP02 [2] = assay type: cell-based, Candida parapsilosis
# Procedure: as §1
# C. krusei ATCC 6258 = assay type: cell-based, Candida krusei
# Procedure: as §1
# C. parapsilosis CP02 [3] = assay: microbe, parasite or virus in culture; assay type: cell-based, Candida parapsilosis; details: for MIC: Lodderomyces parapsilosis
# [4] = test system: C. glabrata vaginal isolates; assay: Susceptibility testing of VVC clinical isolates at pH 7 and 4 (CLSI M27-A3); assay type: cell-based, Candida glabrata; details: Nakaseomyces glabratus
# [5] = test system: C. parapsilosis vaginal isolates; assay: as above; assay type: cell-based, Candida parapsilosis
# Candida parapsilosis = assay: Broth microdilution of invasive fungal isolates (CLSI M27-A3/M38-A2); assay type: cell-based
# Candida tropicalis = assay: as above; assay type: cell-based
# Candida dubliniensis = assay: as above; assay type: cell-based
# Candida orthopsilosis = assay: as above; assay type: cell-based
# Aspergillus fumigatus = assay: Broth microdilution of invasive fungal isolates (CLSI M27-A3/M38-A2), MEC; assay type: cell-based; details: 56 isolates
# [6] = SDA, minimum concentration to cleanly inhibit growth
smiles,measurement,setting,value
"CCCCCOc1ccc(-c2ccc(-c3ccc(C(=O)N[C@H]4C[C@@H](O)[C@@H](O)NC(=O)[C@@H]5[C@@H](O)[C@@H](C)CN5C(=O)[C@H]([C@@H](C)O)NC(=O)[C@H]([C@H](O)[C@@H](O)c5ccc(O)cc5)NC(=O)[C@@H]5C[C@@H](O)CN5C(=O)[C@H]([C@@H](C)O)NC4=O)cc3)cc2)cc1 [ANID, anidulafungin] ({pTerphenylCO(4''-OnC5H11)}-[Orn(4R-OH,5R-OH)]T[Hyp][hTyr(3S-OH,4S-OH)]T[Pro(3S-OH,4S-Me)]; lactam 1-C)",Median mutation frequency,C. albicans NRRL Y-477,1.59E−07
same,Plate concentration,C. albicans NRRL Y-477; [6],0.015 µg/mL
same,Freq. (replicate mutation frequency),C. albicans NRRL Y-477; replicate plates 1-3,1.88E−07 and 1.59E−07 and 1.56E−07
same,Median mutation frequency,[1]; ATCC 2001,7.02E−08
same,Freq. (replicate mutation frequency),[1]; ATCC 2001,7.02E−08 and 6.71E−08 and 1.09E−07
same,Median mutation frequency,[1]; ATCC 90030,9.01E−09
same,Freq. (replicate mutation frequency),[1]; ATCC 90030,4.41E−09 and 2.10E−08 and 9.01E−09
same,Plate concentration,[1]; ATCC 2001,0.125 µg/mL
same,Plate concentration,[1]; ATCC 90030,0.125 µg/mL
same,Median mutation frequency,C. parapsilosis CP02 [2],<1.04E−08
same,Plate concentration,C. parapsilosis CP02 [2]; [6],16 µg/mL
same,Freq. (replicate mutation frequency),C. parapsilosis CP02 [2]; replicate plates 1-3,<1.04E−08 (2×) and <9.62E−09
same,Median mutation frequency,C. krusei ATCC 6258,<3.38E−09
same,Plate concentration,C. krusei ATCC 6258; [6],0.25 µg/mL
same,Freq. (replicate mutation frequency),C. krusei ATCC 6258; replicate plates 1-3,<3.38E−09 (2×) and <3.51E−09
same,MIC fold-shift,"C. parapsilosis CP02 [3]; CP02, WT to P20",1
same,MIC,"C. parapsilosis CP02 [3]; CP02, CP02 P20-1, selecting drug ANID",4 µg/mL
same,MIC,"C. parapsilosis CP02 [3]; CP02, CP02 P20-1, selecting drug CAS",4 µg/mL
same,MIC,"C. parapsilosis CP02 [3]; CP02, CP02 P20-1, selecting drug CMP1",8 µg/mL
same,MIC,"C. parapsilosis CP02 [3]; CP02, read-out: MIC P20, CP02, total population after 20 passages with the selecting drug, MIC of selecting drug",4 µg/mL
same,MIC90,"[4]; 24 h, pH 4",0.125 µg/mL
same,MIC90,"[4]; 24 h, pH 7",0.03 µg/mL
same,MIC90,"[4]; 48 h, pH 4",0.25 µg/mL
same,MIC90,"[4]; 48 h, pH 7",0.06 µg/mL
same,MIC90,"[5]; 24 h, pH 4",1 µg/mL
same,MIC90,"[5]; 24 h, pH 7",2 µg/mL
same,MIC90,"[5]; 48 h, pH 4",2 µg/mL
same,MIC90,"[5]; 48 h, pH 7",4 µg/mL
same,Cumulative % of isolates inhibited at MIC 0.5 μg/mL,Candida parapsilosis; 92 isolates,(4.3) %
same,Cumulative % of isolates inhibited at MIC 1 μg/mL,Candida parapsilosis; 92 isolates,(34.8) %
same,Cumulative % of isolates inhibited at MIC 2 μg/mL,Candida parapsilosis; 92 isolates,(82.6) %
same,Cumulative % of isolates inhibited at MIC 4 μg/mL,Candida parapsilosis; 92 isolates,(100.0) %
same,Number of isolates inhibited at MIC 0.5 μg/mL,Candida parapsilosis; 92 isolates,4
same,Number of isolates inhibited at MIC 1 μg/mL,Candida parapsilosis; 92 isolates,28
same,Number of isolates inhibited at MIC 2 μg/mL,Candida parapsilosis; 92 isolates,44
same,Number of isolates inhibited at MIC 4 μg/mL,Candida parapsilosis; 92 isolates,16
same,MIC50,Candida parapsilosis; Lodderomyces parapsilosis,2 µg/mL
same,MIC90,Candida parapsilosis; Lodderomyces parapsilosis,4 µg/mL
same,Cumulative % of isolates inhibited at MIC 0.015 μg/mL,Candida tropicalis; 51 isolates,(62.7) %
same,Cumulative % of isolates inhibited at MIC 0.03 μg/mL,Candida tropicalis; 51 isolates,(98.0) %
same,Cumulative % of isolates inhibited at MIC 0.06 μg/mL,Candida tropicalis; 51 isolates,(100.0) %
same,Cumulative % of isolates inhibited at MIC ≤0.008 μg/mL,Candida tropicalis; 51 isolates,(9.8) %
same,Number of isolates inhibited at MIC 0.015 μg/mL,Candida tropicalis; 51 isolates,27
same,Number of isolates inhibited at MIC 0.03 μg/mL,Candida tropicalis; 51 isolates,18
same,Number of isolates inhibited at MIC 0.06 μg/mL,Candida tropicalis; 51 isolates,1
same,Number of isolates inhibited at MIC ≤0.008 μg/mL,Candida tropicalis; 51 isolates,5
same,MIC50,Candida tropicalis; Candida tropicalis,0.015 µg/mL
same,MIC90,Candida tropicalis; Candida tropicalis,0.03 µg/mL
same,Cumulative % of isolates inhibited at MIC 0.015 μg/mL,Candida dubliniensis; 11 isolates,(9.1) %
same,Cumulative % of isolates inhibited at MIC 0.03 μg/mL,Candida dubliniensis; 11 isolates,(36.4) %
same,Cumulative % of isolates inhibited at MIC 0.06 μg/mL,Candida dubliniensis; 11 isolates,(100.0) %
same,Number of isolates inhibited at MIC 0.015 μg/mL,Candida dubliniensis; 11 isolates,1
same,Number of isolates inhibited at MIC 0.03 μg/mL,Candida dubliniensis; 11 isolates,3
same,Number of isolates inhibited at MIC 0.06 μg/mL,Candida dubliniensis; 11 isolates,7
same,MIC50,Candida dubliniensis; Candida dubliniensis,0.06 µg/mL
same,MIC90,Candida dubliniensis; Candida dubliniensis,0.06 µg/mL
same,Cumulative % of isolates inhibited at MIC 0.25 μg/mL,Candida orthopsilosis; 10 isolates,(30.0) %
same,Cumulative % of isolates inhibited at MIC 0.5 μg/mL,Candida orthopsilosis; 10 isolates,(50.0) %
same,Cumulative % of isolates inhibited at MIC 1 μg/mL,Candida orthopsilosis; 10 isolates,(90.0) %
same,Cumulative % of isolates inhibited at MIC 2 μg/mL,Candida orthopsilosis; 10 isolates,(100.0) %
same,Number of isolates inhibited at MIC 0.25 μg/mL,Candida orthopsilosis; 10 isolates,3
same,Number of isolates inhibited at MIC 0.5 μg/mL,Candida orthopsilosis; 10 isolates,2
same,Number of isolates inhibited at MIC 1 μg/mL,Candida orthopsilosis; 10 isolates,4
same,Number of isolates inhibited at MIC 2 μg/mL,Candida orthopsilosis; 10 isolates,1
same,MIC50,Candida orthopsilosis; Lodderomyces orthopsilosis,0.5 µg/mL
same,MIC90,Candida orthopsilosis; Lodderomyces orthopsilosis,1 µg/mL
same,Cumulative % of isolates inhibited at MEC 0.015 μg/mL,Aspergillus fumigatus,(91.1) %
same,Cumulative % of isolates inhibited at MEC 0.03 μg/mL,Aspergillus fumigatus,(100.0) %
same,Cumulative % of isolates inhibited at MEC ≤0.008 μg/mL,Aspergillus fumigatus,(53.6) %
same,MEC50,Aspergillus fumigatus,0.008 µg/mL
same,Number of isolates inhibited at MEC 0.015 μg/mL,Aspergillus fumigatus,21
same,Number of isolates inhibited at MEC 0.03 μg/mL,Aspergillus fumigatus,5
same,Number of isolates inhibited at MEC ≤0.008 μg/mL,Aspergillus fumigatus,30

# From patent US20180256673A1, “METHODS FOR TREATING FUNGAL INFECTIONS” (priority 2015, published 2018)
